Measured values: US12351559B2 (Biohaven Therapeutics Ltd., priority 2014, dated 2025)

These molecules were tested against T1, Kv7.2/7.3 (Homo sapiens, UniProt O43525+O43526) (assay: Kv7.2/7.3 activation assay, QPatch planar patch-clamp, single concentration screen). Conditions: Kv7.2/Kv7.3 co-expressing HEK cells, compound 3 μM, steady-state current at end of 2 s pulse to −30 mV.
T1 construct: host or cells: HEK cells, tetracycline-inducible expression
Assay type: cell-based
Set-up: key: <1.2-fold increase over baseline (−); +/−: as a range from <1.2-fold increase over baseline (−) up to >6-fold increase over baseline (+++); as a range from <1.2-fold increase over baseline (−) up to >6-fold increase over baseline (+++); as a range from <1.2-fold increase over baseline (−) up to >6-fold increase over baseline (+++); >6-fold increase over baseline (+++)
Experimental: The ability of compounds to potentiate K-currents in Kv7.2/7.3 containing HEK cells was assessed using planar patch-clamp on the QPatch automated screening platform.
Cell Line: The hKv7.2/7.3 cell line was obtained from Chantest (Cleveland, OH 44128) cat. #CT6147. These HEK cells will express the Kv7.2/7.3 ion channels when induced.
Cell Culture: Cells were maintained in a media containing DMEM/F12; 50/50 (GIBCO cat. #11330), 10% Fetal Bovine Serum (FBS) (GIBCO cat. #26140), 100 units/mL Penicillin-Streptomycin (GIBCO cat. #15140), 0.005 mg/mL Blasticidin (INVIVOGEN cat. #ant-bl-1), 0.5 mg/mL Geneticin (GIBCO cat. #10131), 0.1 mg/ml Zeocin (GIBCO cat. #R25001). Cells used in the electrophysiology assay were maintained in a media without Blasticidin, Geneticin and Zeocin for 2 days and channel expression was induced by adding tetracycline (BIOLINE cat. #BIO-87030) at a final concentration of 1 mg/mL. Cells were grown in T-175 flask to ˜75% confluency. Currents were recorded 24 hours after channel induction.
Compound Plates: Test compounds were prepared by performing serial dilutions on a Biomek NX^P (BECKMAN COULTER). Final dilutions were made in external recording solution with a final DMSO concentration of 0.1% DMSO. For single concentration screens each plate had 10 μM retigabine as a positive control and 0.1% DMSO as a negative control.
Electrophysiology: On the day of the experiment cells were washed with Hank's Balanced Salt Solution (HBBS) (GIBCO cat. #14175) and harvested with Tryple (GIBCO cat. #12604). Cells were then centrifuged at 2000 rpm for 5 minutes and resuspended in CHO-S-SFM (GIBCO cat. #12052) at ˜3×10^6 cells/mL. Cells were stirred for 30 minutes before experiments were started. External recording solution contained (in mM): NaCl (145), KCl (4), CaCl2 (2), MgCl2 (1), HEPES (10) and Glucose (10); pH was adjusted to 7.4 with NaOH and the osmolarity was adjusted to 300-305 mOsM with sucrose if necessary. Internal solution contained (in mM): KCl (125), KF (10), EGTA (5), Na2ATP (5), MgCl2 (3.2), HEPES (5); pH was adjusted to 7.2 with KOH and the osmolarity was adjusted to 298-302 mOsM with sucrose.
Potassium channel activity was measured on the QPatch HTX (Sophion Bioscience) using QPlates with 48-wells/plate. Each cell was taken as an independent experiment and only one compound was tested per well. Potassium channel activity was elicited by holding at −80 mV and stepping to −30 mV for 2 s followed by a 100 ms pulse to −120 mV.
Single concentration screen: Baseline conditions were obtained by recording 5 sweeps in the external solution only, this was repeated for three applications of the external solution. […] The steady-state current at the end of the 2 s pulse to −30 mV was measured to determine the fold increase from baseline.

SMILES | Kv7.2/7.3 Activity: increase in current over baseline
CC(C)[C@H](C)C(=O)Nc1nc2ccc(C#N)cc2n1-c1ccc(F)cc1 [Example 32, (S)-N-(6-cyano-1-(4-fluorophenyl)-1H-benzo[d]imidazol-2-yl)-2,3-dimethylbutanamide] | +
CC1(C)C[C@@H]1C(=O)Nc1nc2ccc(C#N)cc2n1-c1ccc(F)cc1 [Example 33, (S)-N-(6-cyano-1-(4-fluorophenyl)-1H-benzo[d]imidazol-2-yl)-2,2-dimethylcyclopropane-1-carboxamide] | +
CC(C)[C@H](C)C(=O)Nc1nc2ccc(C(F)(F)F)cc2n1C1CCC1 [Example 36, (S)-N-(1-cyclobutyl-6-(trifluoromethyl)-1H-benzo[d]imidazol-2-yl)-2,3-dimethylbutanamide] | +
CC1(C)C[C@@H]1C(=O)Nc1nc2ccc(C(F)(F)F)cc2n1C1CCC1 [Example 37, (S)-N-(1-cyclobutyl-6-(trifluoromethyl)-1H-benzo[d]imidazol-2-yl)-2,2-dimethylcyclopropane-1-carboxamide] | +
O=C(Nc1nc2ccc(C(F)(F)F)cc2n1C1CCC1)C1CC(F)(F)C1 [Example 38, N-(1-cyclobutyl-6-(trifluoromethyl)-1H-benzo[d]imidazol-2-yl)-3,3-difluorocyclobutane-1-carboxamide] | +/−
O=C(CC(C(F)(F)F)C(F)(F)F)Nc1nc2ccc(C(F)(F)F)cc2n1C1CCC1 [Example 39, N-(1-cyclobutyl-6-(trifluoromethyl)-1H-benzo[d]imidazol-2-yl)-4,4,4-trifluoro-3-(trifluoromethyl)butanamide] | +
Cc1cc(-n2c(NC(=O)[C@H]3CC3(C)C)nc3ccc(C(F)(F)F)cc32)on1 [Example 45, (S)-2,2-Dimethyl-N-(1-(3-methylisoxazol-5-yl)-6-(trifluoromethyl)-1H-benzo[d]imidazol-2-yl)cyclopropanecarboxamide] | +
Cc1cc(-n2c(NC(=O)CC(C)(C)C)nc3ccc(C(F)(F)F)cc32)on1 [Example 46, 3,3-dimethyl-N-(1-(3-methylisoxazol-5-yl)-6-(trifluoromethyl)-1H-benzo[d]imidazol-2-yl)butanamide] | +
Cc1cc(-n2c(NC(=O)[C@@H](C)C(C)C)nc3ccc(C(F)(F)F)cc32)on1 [Example 47, (S)-2,3-dimethyl-N-(1-(3-methylisoxazol-5-yl)-6-(trifluoromethyl)-1H-benzo[d]imidazol-2-yl)butanamide] | +
Cc1cc(-n2c(NC(=O)[C@@H](C)C(C)(C)C)nc3ccc(C(F)(F)F)cc32)on1 [Example 48, (S)-2,3,3-trimethyl-N-(1-(3-methylisoxazol-5-yl)-6-(trifluoromethyl)-1H-benzo[d]imidazol-2-yl)butanamide] | +++ (>6-fold increase over baseline (+++))
Cc1cc(-n2c(NC(=O)[C@@H](C)C(C)(C)C)nc3ccc(C#N)cc32)on1 [Example 49, (S)-N-(6-cyano-1-(3-methylisoxazol-5-yl)-1H-benzo[d]imidazol-2-yl)-2,3,3-trimethylbutanamide] | +
CC(O)c1ccc2nc(NC(=O)[C@@H](C)C(C)C)n(C3CCC3)c2c1 (stereo partly drawn) [Example 56, (2S)-N-(1-cyclobutyl-6-(1-hydroxyethyl)-1H-benzo[d]imidazol-2-yl)-2,3-dimethylbutanamide] | ++

Further lines, results first:

Kv7.2/7.3 Activity: increase in current over baseline | SMILES
+ | C[C@](O)(CC(=O)Nc1nc2ccc(C#N)cc2n1C1CCC1)c1ccccc1 [Example 29, (S)-N-(6-cyano-1-cyclobutyl-1H-benzo[d]imidazol-2-yl)-3-hydroxy-3-phenylbutanamide]
+ | C[C@@](O)(CC(=O)Nc1nc2ccc(C#N)cc2n1C1CCC1)c1ccccc1 [Example 30, (R)-N-(6-cyano-1-cyclobutyl-1H-benzo[d]imidazol-2-yl)-3-hydroxy-3-phenylbutanamide]
+ | CC(C)(C)CC(=O)Nc1nc2ccc(C#N)cc2n1-c1ccc(F)cc1 [Example 31, N-(6-cyano-1-(4-fluorophenyl)-1H-benzo[d]imidazol-2-yl)-3,3-dimethylbutanamide]
++ | CC(C)(C)CC(=O)Nc1nc2ccc(C(F)(F)F)cc2n1C1CCC1 [Example 34, N-(1-cyclobutyl-6-(trifluoromethyl)-1H-benzo[d]imidazol-2-yl)-3,3-dimethylbutanamide]
+ | CC(C)(O)CC(=O)Nc1nc2ccc(C(F)(F)F)cc2n1C1CCC1 [Example 35, N-(1-cyclobutyl-6-(trifluoromethyl)-1H-benzo[d]imidazol-2-yl)-3-hydroxy-3-methylbutanamide]
+ | CC(C)[C@@H](C)C(=O)Nc1nc2ccc(C(F)(F)F)cc2n1C1CCC1 [Example 40, (R)-N-(1-cyclobutyl-6-(trifluoromethyl)-1H-benzo[d]imidazol-2-yl)-2,3-dimethylbutanamide]
+/− | CC(C)(O)[C@H]1C[C@@H]1C(=O)Nc1nc2ccc(C(F)(F)F)cc2n1C1CCC1 [Example 41, (1S,2S)-N-(1-cyclobutyl-6-(trifluoromethyl)-1H-benzo[d]imidazol-2-yl)-2-(2-hydroxypropan-2-yl)cyclopropane-1-carboxamide]
+/− | C[C@](O)(C(=O)Nc1nc2ccc(C(F)(F)F)cc2n1C1CCC1)C(F)(F)F [Example 42, (S)-N-(1-cyclobutyl-6-(trifluoromethyl)-1H-benzo[d]imidazol-2-yl)-3,3,3-trifluoro-2-hydroxy-2-methylpropanamide]
+ | O=C(CC1(O)CCC1)Nc1nc2ccc(C(F)(F)F)cc2n1C1CCC1 [Example 44, N-(1-cyclobutyl-6-(trifluoromethyl)-1H-benzo[d]imidazol-2-yl)-2-(1-hydroxycyclobutyl)acetamide]
+/− | CCOC(=O)c1ccc2nc(NC(=O)CC(C)(C)C)n(C3CCC3)c2c1 [Example 50, ethyl 1-cyclobutyl-2-(3,3-dimethylbutanamido)-1H-benzo[d]imidazole-6-carboxylate]
+ | CC(C)(C)CC(=O)Nc1nc2ccc(CO)cc2n1C1CCC1 [Example 51, N-(1-cyclobutyl-6-(hydroxymethyl)-1H-benzo[d]imidazol-2-yl)-3,3-dimethylbutanamide]
+/− | CC(C)[C@H](C)C(=O)Nc1nc2ccc(CO)cc2n1C1CCC1 [Example 52, (S)-N-(1-cyclobutyl-6-(hydroxymethyl)-1H-benzo[d]imidazol-2-yl)-2,3-dimethylbutanamide]
+ | CC(C)(C)CC(=O)Nc1nc2ccc(C(C)(C)O)cc2n1C1CCC1 [Example 53, N-(1-cyclobutyl-6-(2-hydroxypropan-2-yl)-1H-benzo[d]imidazol-2-yl)-3,3-dimethylbutanamide]
++ | CC(C)[C@H](C)C(=O)Nc1nc2ccc(C(C)(C)O)cc2n1C1CCC1 [Example 54, (S)-N-(1-cyclobutyl-6-(2-hydroxypropan-2-yl)-1H-benzo[d]imidazol-2-yl)-2,3-dimethylbutanamide]
+ | CC(O)c1ccc2nc(NC(=O)CC(C)(C)C)n(C3CCC3)c2c1 (stereo not shown) [Example 55, N-(1-cyclobutyl-6-(1-hydroxyethyl)-1H-benzo[d]imidazol-2-yl)-3,3-dimethylbutanamide]
+ | CCC(O)c1ccc2nc(NC(=O)CC(C)(C)C)n(C3CCC3)c2c1 (stereo not shown) [Example 57]
